From paper PMC10714399, “Open Source Antibiotics: Simple Diarylimidazoles Are Potent against Methicillin-Resistant Staphylococcus aureus” (ACS Infectious Diseases, 2023)
Converted amounts (≈) assume the structure as drawn. “And” between values parts separate entries of the source, which are not always exact repeats. Equal values may be shown once. Where a name gives a salt, the structure may show the parent alone. Read-outs that look alike come from different tables or passages of the source. Values belong to the compound of their own block, whether it stands above or below them.

Columns and labels:
[1] = tested on: Staphylococcus aureus ATCC 43300 MRSA; experiment: CO-ADD antibacterial assay (growth inhibition, MIC), MRSA; type: cell-based
Description: Hit Confirmation of active compounds by whole cell growth inhibition assays was conducted as an 8-point dose response to determine the Minimum Inhibitory Concentration (MIC), in duplicate (n=2). The inhibition of growth is measured against those microorganisms that […]
Included in the Hit Confirmation were 5 bacteria: Escherichia coli, Klebsiella pneumoniae, Acinetobacter baumannii, Pseudomonas aeruginosa and Staphylococcus aureus, and 2 fungi Candida albicans and Cryptococcus neoformans. […]
Assay Parameters Bacteria Fungi HEK293 Haemolysis […]
Duplicate (n=2) Duplicate (n=2) Duplicate (n=2) Duplicate (n=2)
QC Control MIC: Control MIC: Control CC50: Control HC10:
Non-Binding Non-Binding TC, 384-well Polypropylene
Plates Surface (NBS), Surface (NBS), black wall/clear 384-well and 384-well plate 384-well plate bottom polystyrene 384-
Cation-adjusted Yeast Nitrogen DMEM
Media Mueller Hinton Base supplemented 0.9% NaCl
Hit Confirmation outcomes are detailed in individual Project reports, personalised for each Project Submission for each CO-ADD user.
Please see your data sheet with file extension P0XXX_HC_data.xlsx, for example CO-ADD Project P0100, P0100_HC_data.xlsx
Study: HC_data ID: HC-Procedures & Materials
Date: Last updated June 2018 Confidential Page 3 of 11
(1 picture or pasted object on this page, not shown here)
Samples were provided by the collaborator and stored frozen at -20 °C. Samples were prepared in DMSO and water to a final testing concentration of 32 µg/mL or 20 µM (unless otherwise indicated in the data sheet) and serially diluted 1:2 fold for 8 times. Each sample concentration was prepared in 384-well plates, non-binding surface plate (NBS; Corning 3640) for each bacterial/fungal strain, tissue-culture treated (TC-treated; Corning 3712/3764) black for mammalian cell types and polypropylene 384-well (PP; Corning 3657) for haemolysis assays, all in duplicate (n=2), and keeping the final DMSO concentration to a maximum of 0.5%. All the sample preparation was done using liquid handling robots. […]
detailed in the Data sheet for the individual Project.
All bacteria were cultured in Cation-adjusted Mueller Hinton broth (CAMHB) at 37 °C overnight. A sample of each culture was then diluted 40-fold in fresh broth and incubated at 37 °C for 1.5-3 h. The resultant mid-log phase cultures were diluted (CFU/mL measured by OD600), then added to each well of the compound containing plates, giving a cell density of 5×10^5 CFU/mL and a total volume of 50 µL. All the plates were covered and incubated at 37 °C for 18 h without shaking.
Inhibition of bacterial growth was determined measuring absorbance at 600 nm (OD600), using a Tecan M1000 Pro monochromator plate reader. The percentage of growth inhibition was calculated for each well, using the negative control (media only) and positive control (bacteria without inhibitors) on the same plate as references.
The percentage of growth inhibition was calculated for each well, using the negative control (media only) and positive control (bacteria without inhibitors) on the same plate. The MIC […]
by an inhibition ≥ 80%. In addition, the maximal percentage of growth inhibition is reported as DMax, indicating any compounds with partial activity.
Date: Last updated June 2018 Confidential Page 5 of 11
Material Code Brand/Supplier Cat No.
Compound preparation plate, Polypropylene PP Corning 3364
Assay Plates – Antimicrobial
Non-binding surface NBS 384w Corning 3640
Assay Plates – Cytotoxicity
Tissue culture treated Black/Clear bottom 384w Corning 3712
Assay Plates - Haemolysis PP-Haem Corning 3657 […]
Growth media - bacteria CAMHB Bacto Laboratories 212322
Culture agar - fungi YPD Becton Dickinson 242720
Growth media - fungi YNB Becton Dickinson 233520
Resazurin Sigma-Aldrich R7017
Dulbecco's Modified Eagle Medium DMEM Life Technologies 11995-073
Foetal Bovine Serum FBS Bovogen FFBS-500
0.9% NaCl Saline Baxter AHF7124
Sample Name Sample ID MW Conc. Solvent Source […]

[2] = tested on: Enterococcus faecalis ATCC 51299 (vanA-positive; vancomycin-resistant); experiment: In vitro antibacterial activity, MIC (UCL), VRE; type: cell-based
Method in brief: (§1)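 Each organism was taken from overnight tryptone soya agar, suspended in PBS at A600 0.1, diluted 1:100 in isosensitest broth and added to serially diluted compound (32 to 0.03 μg/mL).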

[3] = tested on: MRC-5SV2 (human lung fibroblast cell line); experiment: Toxicity against MRC-5SV2; type: cell-based; settings: MRC5 cells
Description: (§2) ADME and toxicity for compounds were measured according to procedures outlined in the manuscript submitted in parallel to this one;2 other procedures were used for those compounds analysed by Monash University (in vitro ADME) or UCL (toxicity), both described in the main

[4] = tested on: S. aureus ATCC 25923 (methicillin-susceptible); experiment: In vitro antibacterial activity, MIC (UCL), MSSA; type: cell-based, Staphylococcus aureus; settings: Staphylococcus aureus; read-out: MSSA MIC (UCL)
Method in brief: as §1

VSE = experiment: In vitro antibacterial activity, MIC, VSE; type: cell-based; settings: read-out: VSE MIC (UCL)
[5] = Rat hepatocyte intrinsic clearance; type: in vitro ADME; settings: rat hepatocytes, NEU; read-out: Rat Hep CLint (NEU)
[6] = tested on: Staphylococcus aureus NCTC 13373 (mecA-positive; methicillin-resistant); experiment: In vitro antibacterial activity, MIC (UCL School of Pharmacy assay), MRSA; type: cell-based; settings: Staphylococcus aureus
Method in brief: as §1

[7] = Human plasma protein binding (PPB); type: in vitro ADME; settings: human, plasma, human plasma, NEU; read-out: Human PPB (NEU) (converted)
LogD7.4 (Chrom Log D) = type: physicochemical; settings: chromatographic system (Chrom Log D); pH 7.4, NEU; read-out: LogD 7.4 (NEU)
From the text: To guide our initial SAR exploration work, we obtained liver microsomal intrinsic clearance data for 5 of the 18 compounds assayed by CO-ADD (Supporting Information - CDCO Report and Supporting Information - Biology). We then acquired intrinsic clearance (CLint), plasma protein binding (PPB), and solubility data on further compounds throughout the SAR campaign (Supporting Information - Biology, Tables S3 and S4). […] The more polar compounds (lower LogD) had reduced PPB and were more metabolically stable.
Table S4. ADME and Pharmacokinetics: compounds only appearing in the Supplementary […]
MRSA Aqueous HLM CLint Rat Hep CLint
Cmpd MIC Solubility Human PPB (%) (µL/min/mg (µL/min/10x6 LogD7.4
(µg/mL) (µM) protein) cells)
as §2

[8] = Human liver microsome intrinsic clearance; type: in vitro ADME; settings: human liver microsomes, NEU; read-out: HLM CLint (NEU)
Aqueous solubility = type: physicochemical; settings: thermodynamic from solid; NEU; read-out: Aqueous Solubility (NEU)
[9] = HEK293 toxicity, 96-well dose-response (UCL; MTT or resazurin, with or without recovery); type: cell-based, human; settings: human, HEK293 cells; 32 μg/mL; read-out: spread of Dmax values comparing recovery and non-recovery conditions
Description: The importance of balancing potency vs MRSA and cytotoxicity led us to examine a subset of compounds more thoroughly for toxicity against human embryonic kidney cell line HEK293. […] Dmax is a parameter that quantifies toxicity at the highest tested concentration (32 μg/mL for all compounds), calculated as reciprocal percentage of viable cells (100 – viability%), where cells either were allowed to recover or viability was measured immediately after treatment. […] Our efforts focused on trying to replicate the original toxicity experiments (by CO-ADD) with tamoxifen using a protocol modified for use with 96-well plates. Given the variability of protocols and results in the literature,[28] it was important to compare with a standard protocol we have reliably used in our own laboratories.[29]−[33] […] Truly “non-toxic” compounds might be expected to show Dmax < 50% for all experiment variations, e.g., 861. […] A large spread of Dmax values comparing recovery and non-recovery conditions larger than 20% is perhaps indicative of a mechanism of toxicity that persists beyond exposure, i.e., cytotoxic compounds that continue to induce toxicity as cells recover and restart dividing, for example, compounds 865, 870, 871, 980, and 981. […] This variability could be driven by interference of the compounds with the fluorescence readout or resorufin build-up as previously described.[27]
HEK293 cells (ATCC, UK) at passage 32 were a kind gift from Dr. Ben Allsop from the Translational Research Office at University College London. Cells were tested for mycoplasma using a MycoAlert Detection Kit (Lonza, Switzerland) as per manufacturer instructions, frozen stocks were stored in liquid nitrogen, and cells were re-tested whenever a new aliquot was thawed.
Cells were maintained in DMEM (Sigma-Aldrich, UK) supplemented with 10% heat-inactivated FBS (Sigma-Aldrich, UK), 1% GlutaMax (ThermoFisher, UK), and 1% sodium pyruvate (Lonza, UK) without antibiotics in an incubator at 37 °C and 5% CO2. Media was changed every 2 days, and cells were passaged every 3–4 days at a subcultivation ratio of 1:10, by detaching the cells with phenol-free TrypLE Express (ThermoFisher, UK), after washing with HBSS Ca^2+/Mg^2+ (ThermoFisher, UK). Up to 55 passages were used throughout the experiments.
(a) Cell seeding: At subculture, a dilute solution of cells was counted using Trypan Blue (Sigma-Aldrich, UK) and a hemocytometer. Cells were further diluted to 7000 or 50 000 cells/mL for experiments.
For recovery experiments, 700 cells (100 μL) were seeded in 96-well plates and incubated for 48 h while cells reached exponential phase.
For non-recovery experiments, 5000 cells (100 μL) were seeded in 96-well plates and incubated for 48 h while cells reached confluence. This is the same number of cells as per the CO-ADD protocol where 384-well plates were used, but we extended the growth time to 48 h to produce a similar confluency.
Stock solutions were diluted 100 times (to 1% DMSO) to 32 μg/mL in full medium (vortexed briefly) and then serially diluted using a digital pipet (Explorer, Eppendorf, Germany) at a dilution factor of 2 to a final concentration of […].
(c) Dosing experiments: At the specified time after seeding, media was removed from cells, cells were washed with HBSS Ca^2+/Mg^2+ (100 μL), and 100 μL of diluted compounds were added as per Supporting Information - Biology, Figure S4, and incubated for 24 h.
After treatment, solutions were removed, and cells were washed with HBSS Ca^2+/Mg^2+. For non-recovery experiments, viability was determined immediately as described below.
For recovery experiments, fresh media was added to plates (100 μL) and cells were returned to the incubator for another 72 h, after which viability was recorded as described below.
i. MTT assay: 3-[4,5-Dimethylthiazol-2-yl]-2,5-diphenyltetrazolium bromide (MTT) (Sigma-Aldrich, UK) was dissolved in sterile PBS at 5 mg/mL with sonication (20 min), protected from light. […]

SMILES: CSc1cccc(-c2c(-c3ccccn3)nc3n2CCC3)c1 [OSA_000826]
MIC ([1]; read-out: MRSA MIC (CO-ADD)): 4 µg/mL (≈ 13 µM)

SMILES: Fc1ccc(Nc2c(-c3ccccn3)nc3ccccn23)cc1 [OSA_000987]
MIC ([2]; read-out: VRE MIC (UCL)): 32 µg/mL (≈ 105 µM)
MRC5 TC50 [3]: 7.65 µM and 6.04 µM
MIC [4]: 16 µg/mL (≈ 52.6 µM)
MIC (VSE): 32 µg/mL (≈ 105 µM)
hepatocyte CLint [5]: 151 µL/min/1e6 cells
MIC ([6]; UCL, read-out: MRSA MIC (UCL)): 8 µg/mL (≈ 26.3 µM)
fraction unbound [7]: 0.017
chromatographic logD (LogD7.4 (Chrom Log D)): 3.3
microsomal CLint [8]: 148 µL/min/mg
solubility (Aqueous solubility): 0.5 µM (≈ 0.152 µg/mL)

SMILES: COc1ccnc(-c2nc3cc(OC)ccn3c2N(C)c2ccc(F)cc2)c1 [OSA_001000]
MIC ([2]; read-out: VRE MIC (UCL)): 8 µg/mL (≈ 21.1 µM)
MIC [4]: 8 µg/mL (≈ 21.1 µM)
MIC (VSE): 8 µg/mL (≈ 21.1 µM)
hepatocyte CLint [5]: > 300 µL/min/1e6 cells
MIC ([6]; UCL, read-out: MRSA MIC (UCL)): 2 µg/mL (≈ 5.29 µM)
fraction unbound [7]: < 0.033
chromatographic logD (LogD7.4 (Chrom Log D)): 3.1
microsomal CLint [8]: 51.2 µL/min/mg
solubility (Aqueous solubility): 12 µM (≈ 4.54 µg/mL)

SMILES: CN[C@H](CC(C)C)C(=O)N[C@H]1C(=O)N[C@@H](CC(N)=O)C(=O)N[C@H]2C(=O)N[C@H]3C(=O)N[C@H](C(=O)N[C@H](C(=O)O)c4cc(O)cc(O)c4-c4cc3ccc4O)[C@H](O)c3ccc(c(Cl)c3)Oc3cc2cc(c3O[C@@H]2O[C@H](CO)[C@@H](O)[C@H](O)[C@H]2O[C@H]2C[C@](C)(N)[C@H](O)[C@H](C)O2)Oc2ccc(cc2Cl)[C@H]1O [Vancomycin - HCl, Vancomycin - HCL, reference compound]
MIC ([1]; read-out: MIC MRSA (CO-ADD)): 1 µg/mL

SMILES: c1ccc(-c2c(-c3ccccn3)nc3n2CCC3)cc1 [compound 870]
MIC ([2]; read-out: VRE MIC): > 32 µg/mL
MIC ([6]; read-out: MRSA MIC): 32 µg/mL (≈ 122 µM)
Dmax spread between recovery and non-recovery conditions at 24 h, 32 μg/mL [9]: > 20%

More lines, now with the values ahead:

MIC ([1]; read-out: MRSA MIC (CO-ADD)): 32 µg/mL (≈ 105 µM)
SMILES: c1ccc(-c2nc3n(c2-c2ccc4c(c2)CCO4)CCC3)nc1 [OSA_000827]

MIC ([1]; read-out: MRSA MIC (CO-ADD)): 32 µg/mL (≈ 105 µM)
SMILES: c1ccc(-c2nc3n(c2-c2ccc4c(c2)OCC4)CCC3)nc1 [OSA_000828]

MIC ([1]; read-out: MRSA MIC (CO-ADD)): 4 µg/mL (≈ 13.3 µM)
SMILES: c1ccc(-c2nc3n(c2-c2ccc4ccoc4c2)CCC3)nc1 [OSA_000829]

MIC ([1]; read-out: MRSA MIC (CO-ADD)): 4 µg/mL (≈ 12.6 µM)
SMILES: c1ccc(-c2nc3n(c2-c2ccc4ccsc4c2)CCC3)nc1 [OSA_000830]
